Assay results: patent publication EP1743641A1, “Use of substituted pyrazoline compounds for the treatment of food disorders, including obesity or metabolic syndrome in patients with developed diabetes” (LABORATORIOS DEL DR. ESTEVE, S.A., priority 2005, dated 2007)

Experiments:
CB1-Receptor = biological target: T1, CB1-Receptor (Homo sapiens, UniProt P21554); test: In-vitro determination of affinity to CB1 receptor (radioligand [3H]-CP55940); type: binding
T1 construct: purchased Receptor Biology, Inc
T1 sequence (P21554 whole entry): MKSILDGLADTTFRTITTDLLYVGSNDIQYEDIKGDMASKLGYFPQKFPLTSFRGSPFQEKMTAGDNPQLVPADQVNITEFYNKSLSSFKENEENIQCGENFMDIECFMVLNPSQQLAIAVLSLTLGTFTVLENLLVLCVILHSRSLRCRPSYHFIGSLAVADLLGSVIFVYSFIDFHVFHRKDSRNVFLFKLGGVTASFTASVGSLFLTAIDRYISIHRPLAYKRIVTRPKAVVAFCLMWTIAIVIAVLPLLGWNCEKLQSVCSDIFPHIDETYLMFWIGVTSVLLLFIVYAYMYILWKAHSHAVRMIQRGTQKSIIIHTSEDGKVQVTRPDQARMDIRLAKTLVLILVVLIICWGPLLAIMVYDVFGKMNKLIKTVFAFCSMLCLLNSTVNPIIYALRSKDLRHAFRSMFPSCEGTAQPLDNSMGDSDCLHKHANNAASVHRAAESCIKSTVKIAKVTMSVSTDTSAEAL
Description: (§1) The in-vitro determination of the affinity of the substituted pyrazoline compounds to CB1/CB2-Rezeptors is carried out as described in the publication of Ruth A. Ross, Heather C. Brockie et al., "Agonist-inverse agonist characterization at CB1 and CB2 cannabinoid receptors of L-759633, L759656 and AM630", British Journal of Pharmacology, 126, 665-672, (1999), whereby the transfected human CB1 and CB2 receptors of Receptor Biology, Inc. are used. The radioligand used for both receptors is [^3H]-CP55940. The respective parts of the description is hereby incorporated by reference and forms part of the present disclosure.
The affinity of the inventive substituted pyrazoline compounds to CB1/CB2 receptors was determined as described above.

CB2-Receptor = biological target: T2, CB2-Receptor (Homo sapiens, UniProt P34972); test: In-vitro determination of affinity to CB2 receptor (radioligand [3H]-CP55940); type: binding
T2 construct: purchased Receptor Biology, Inc
T2 sequence (P34972 whole entry): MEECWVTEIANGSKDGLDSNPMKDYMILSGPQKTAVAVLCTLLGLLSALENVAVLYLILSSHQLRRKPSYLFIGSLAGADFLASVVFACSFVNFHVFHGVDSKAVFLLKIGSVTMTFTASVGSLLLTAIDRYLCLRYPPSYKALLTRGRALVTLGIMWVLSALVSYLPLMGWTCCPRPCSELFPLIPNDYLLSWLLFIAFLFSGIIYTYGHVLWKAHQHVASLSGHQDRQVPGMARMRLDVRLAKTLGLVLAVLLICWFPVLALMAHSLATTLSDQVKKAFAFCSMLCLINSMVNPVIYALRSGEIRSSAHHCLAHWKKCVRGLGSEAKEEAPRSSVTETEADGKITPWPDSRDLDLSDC
Description: as §1, with “disclosure. The affinity of the inventive substituted pyrazoline compounds to CB1/CB2 receptors was determined as described above.” for “disclosure.”

cannabinoid receptors [1] = test: Mouse tetrad model, agonistic effect; type: in vivo, Male NMRI mice; parameters: key to Agonistic effect D: Sedation: % of sedation = arithmetic mean score/3 × 100; settings: 5 mg/kg i.v., mice
Excerpt: (§2) Substances with affinity for cannabinoid receptors are known to produce a wide range of pharmacological effects. It is also known that intravenous administration of a substance with affinity for cannabinoid receptors in mice produces analgesia , hypothermia, sedation and catalepsy. Individually, none of these effects can be considered as proof that a tested substance has affinity for cannabinoid-receptors, since all of these effects are common for various classes of centrally active agents. However, substances, which show all of these effects, i.e. substances that are active in this so-called tetrad model are considered to have affinity for the cannabinoid receptors. It has further been shown that cannabinoid receptor antagonists are higly effective in blocking the effects of a cannabinoid agonist in the mouse tetrad model.
(§3) The tetrad model is described, for example, in the publication of A. C. Howlett et al, International Union of Pharmacology XXVII. Classification of Cannabinoid e cept σs, Pharmacol Rev 54, 161-202 , 2002 and David R. Compton et al., "In-vivo Characterization of a Specific Cannabinoid Receptor Antagonist (SR141716A) :Inhibition of Tetrahydrocannbinol- induced Responses and Apparent Agonist Activity", J. Pharmacol. Exp. Ther. 277, 2, 586-594, 1996. The corresponding parts of the description are hereby incorporated by reference.
(§4) Male NMRI mice with a weight of 20-30 g (Harlan, Barcelona, Spain) are used in all of the following experiments.
(§5) Before testing in the behavioral procedures given below, mice are acclimatized to the experimental setting. Pre-Treatment control values are determined for analgesia hot plate latency (in seconds), rectal temperature, sedation and catalepsy.
(§6) In order to determine the agonistic activty of the substance to be tested, the mice are injected intravenously with the substance to be tested or the vehicle alone. 15 minutes after injection, latency in hot plate analgesia is measured. Rectal temperature, sedation and catalepsy are measured 20 minutes after injection.
(§7) The hot plate analgesia is determined according to the method described in Woolfe D. et al. "The evaluation of analgesic action of pethidine hydrochloride (Demerol)", J. Pharmacol. Exp. Ther. 80, 300-307,1944. The respective description is hereby incorporated by reference and forms part of the present disclosure.
(§8) The mice are placed on a hot plate (Harvard Analgesimeter) at 55 ± 0.5 °C until they show a painful sensation by licking their paws or jumping and the time for these sensations to occur is recorded. This reading is considered the basal value (B). The maximum time limit the mice are allowed to remain on the hot plate in absence of any painful response is 40 seconds in order to prevent skin damage. This period is called the cut-off time (PC).
(§9) Fifteen minuts after the administration of the substance to be tested, the mice are again placed on the hot plate and the afore described procedure is repeated. This period is called the post-treatment reading (PT).
(§10) %MPEof Analgesia = (PT−B)/(PC−B) × 100 [formula]
(§11) Sedation and ataxia is determined according to the method described in Desmet L. K. C. et al. "Anticonvulsive properties of Cinarizine and Flunarizine in Rats and Mice", Arzneim. -Forsch. (Frug Res) 25, 9, 1975. The respective description is hereby incorporated by reference and forms part of the present disclosure.
(§12) The chosen scoring system is
%of sedation = arithmetic mean/3 × 100 [formula]
Hypothermia is determined according to the method described in David R. Compton et al. "In-vivo Characterization of a Specific Cannabinoid Receptor Antagonist (SR141716A) Inhibition of Tetrahydrocannbinol- induced Responses and Apparent Agonist Activity", J. Pharmacol Exp Ther. 277 , 2, 586-594, 1996. The respective description is hereby incorporated by reference and forms part of the present disclosure. […]

cannabinoid receptors [2] = test: Mouse tetrad model, antagonistic effect against Win 55212-2; type: in vivo, Male NMRI mice; parameters: unit not given here; settings: 5 mg/kg i.v. prior to Win 55212-2 in a dose of 1,25mg/kg i.v., mice
Excerpt: as §2, §3, §4, §5, §6
In order to determine the antagonistic activity the identical procedure is used as for the determination of the agonistic effects, but with the difference that the substance to be evaluated for its antagonistic activity is injectected 5 minutes before the intravenous injection of 1.25 mg/kg Win-55,212 a known cannabinoid-receptor agonist.
as §7, §8, §9, §10, §11, §12
%of sedation = arithmetic mean/3 × 100 [formula] […]

Row | SMILES | Ki (CB1-Receptor) [µM] | Ki (CB2-Receptor) [µM] | Agonistic effect A: Hot-Plate test (cannabinoid receptors [1]) | Agonistic effect B: Hypothermia (cannabinoid receptors [1]) | Agonistic effect C: Catalepsy (cannabinoid receptors [1]) | Agonistic effect D: Sedation (cannabinoid receptors [1]) | Antagonistic Effect A: Hot-Plate test (cannabinoid receptors [2]) | Antagonistic Effect B: Hypothermia (cannabinoid receptors [2]) | Antagonistic Effect C: Catalepsy (cannabinoid receptors [2]) | Antagonistic Effect D: Sedation (cannabinoid receptors [2])
1 | O=C(NN1CCCCC1)C1=NN(c2ccc(Cl)cc2Cl)C(c2ccc(Cl)cc2)C1 (stereo not shown) [Example 1, N-piperidinyl-5-(4-chlorophenyl)-1-(2,4-dichlorophenyl)-4,5-dihydro-1H-pyrazole-3-carboxamide] | < 0.025 | > 1 | 0 | 0 | 0 | 0 | 74 | 100 | 100 | 100
2 | O=C(C1=NN(c2ccc(Cl)cc2Cl)C(c2ccc(Cl)cc2)C1)N1CCCCC1 (stereo not shown) [Example 5, [5-(4-Chloro-phenyl)-1-(2,4-dichloro-phenyl)-4,5-dihydro-1H-pyrazol-3-yl]-piperidin-1-yl-methanone] | – | ~1 | 0 | 50 | 0 | 0 | 50 | 40 | 20 | 20
